{
  "source": "patent US20260007730A1",
  "about": "“HUMAN CTLA-4 PEPTIDE VACCINES AND USES THEREOF” (Ohio State Innovation Foundation, priority 2022, published 2026)",
  "molecules": {"B1": {"name": "KLLSLIKGVIVHRLEGVEGPSLGNELTFLDDSICTGTSSGNQVNFHMSVVRARRNDSGTYL-CONH2 (peptide)", "chain": "KLLSLIKGVIVHRLEGVEGPSLGNELTFLDDSICTGTSSGNQVNFHMSVVRARRNDSGTYL-NH2", "modifications": "not fully specified; printed as KLLSLIKGVIVHRLEGVEGPSLGNELTFLDDSICTGTSSGNQVNFHMSVVRARRNDSGTYL-CONH2"}},
  "type_in_all_cases": "in vivo, BALB/c mice",
  "key": {"CT26 tumor cells": {"test_system": "CT26 tumor cells", "assay": "CTLA-4 peptide mimics in CT26-BALB/c tumor model (V32)", "conditions": "CT26, 200 ug peptide mimic from day 1, Day 14", "experimental": "6-8 weeks old BALB/c mice were challenged with 1×10^5 per mouse CT26 tumor cells (FIG. 6A). After tumor challenge, the positive control group, we treat the mice with anti-mouse CTLA-4 antibody (clone 9H10) twice a week, start from day 1 post tumor challenge and the negative control group was treated with PBS. For the CTLA-4 peptide mimic treatment groups, mice were treated with 200 ug peptide mimics as indicated start from day 1 post tumor challenging. All the mice had been treated at day 1, day 2, day 5, day 7, day 9, day 12, day 14, and day 16 post tumor challenge. The immunogenicity (antibody titer) was under detectable. Tumor volume was calculated as: Tumor volume (LWW)=(Length×Width×Width)/2\nMice challenged with tumor cells were monitored at least twice per week and tumor sizes were measured by calipers. Formula: Volume (LWW)=(Length×Width×Width)/2 was used to calculate tumor volumes. […] Data statistical analysis was performed by GraphPad Prism 8.1.2 (GraphPad Software, Inc. San Diego, CA, USA) and the indicated statistical analysis. One-way analysis of variance (one-way ANOVA) and followed by the Tukey's multiple comparisons test were used to compare data in multiple groups or data between groups in multiple groups. And the two-way ANOVA was used to analysis the whole curves comparison. The Log-rank (Mantel-Cox) test was use to compare the survival curves. […]"}, "4T1 breast cancer cells": {"test_system": "4T1 breast cancer cells", "assay": "CTLA-4 peptide vaccines in 4T1-BALB/c tumor model", "conditions": "for survival versus PBS group (Log-rank test): 4T1", "experimental": "6-8 weeks old BALB/c mice were vaccinated with MVF-CTLA-4 (59), MVF-CTLA-4 (75), MVF-CTLA-4 (92) or MVF-CTLA-4 (130) for 3 weeks interval. 0.1 mg peptide cancer vaccine mixed with ISA 720 (1:1) used per mouse. Mice were boosted with the designed doses for every 3 weeks intervals. Blood was collected weekly for monitoring antibody titers. After 2 weeks of the third time immunization (3Y), mice were challenged with 10^5 per mouse 4T1 (FIG. 4A). After tumor challenge, the positive control group, we treat the mice with anti-mouse CTLA-4 antibody (clone 9H10) twice a week for up to three weeks, and the negative control group was treated with PBS. Tumor volume was calculated as: Tumor volume (LWW)=(Length×Width×Width)/2\n(§1) Mice challenged with tumor cells were monitored at least twice per week and tumor sizes were measured by calipers. Formula: Volume (LWW)=(Length×Width×Width)/2 was used to calculate tumor volumes. […] Data statistical analysis was performed by GraphPad Prism 8.1.2 (GraphPad Software, Inc. San Diego, CA, USA) and the indicated statistical analysis. One-way analysis of variance (one-way ANOVA) and followed by the Tukey's multiple comparisons test were used to compare data in multiple groups or data between groups in multiple groups. And the two-way ANOVA was used to analysis the whole curves comparison. The Log-rank (Mantel-Cox) test was use to compare the survival curves. P value or adjusted p value less than 0.05 was accepted as statistically significant different."}, "CT26 colon carcinoma": {"test_system": "CT26 colon carcinoma", "assay": "CTLA-4 peptide vaccines in CT26-BALB/c tumor model", "experimental": "(§2) 6-8 weeks old BALB/c mice were vaccinated with MVF-CTLA-4 (59), MVF-CTLA-4 (75), MVF-CTLA-4 (92) or MVF-CTLA-4 (130) for 3 weeks interval. 0.1 mg peptide cancer vaccine mixed with ISA 720 (1:1) used per mouse. Mice were boosted with the designed doses for every 3 weeks intervals. Blood was collected weekly for monitoring antibody titers.\nAfter 2 weeks of the third time immunization (3Y), mice were challenged with 10^5 per mouse CT26 (FIG. 3A). After tumor challenge, the positive control group, we treat the mice with anti-mouse CTLA-4 antibody (clone 9H10) twice a week for up to three weeks, and the negative control group was treated with PBS. Tumor volume was calculated as: Tumor volume (LWW)=(Length×Width×Width)/2. Mean value of tumor growths in BALB/c mice were vaccinated with MVF-CTLA-4 (59), MVF-CTLA-4 (75), MVF-CTLA-4 (92) or MVF-CTLA-4 (130), PBS as negative control and anti-mouse CTLA-4 antibody (clone 9H10) as positive control. […] Individual mouse CT26 tumor growths in each group of mice were vaccinated with MVF-CTLA-4 (59), MVF-CTLA-4 (75), MVF-CTLA-4 (92) or MVF-CTLA-4 (130), PBS as negative control and anti-mouse CTLA-4 antibody (clone 9H10) as positive control (FIG. 3C).\nas §1"}, "D2F2 mammary tumor cells": {"test_system": "D2F2 mammary tumor cells", "assay": "CTLA-4 peptide vaccines in D2F2-BALB/c tumor model", "conditions": "for survival versus PBS group (Log-rank test): D2F2", "experimental": "as §2, with “mouse (FIG. 5A).” for “mouse.”, “titers. After 2 weeks of the third time immunization (3Y), mice were challenged with 2×10^5 per mouse D2F2 mammary tumor cells.” for “titers.”\nAfter tumor challenge, the positive control group, we treat the mice with anti-mouse CTLA-4 antibody (clone 9H10) twice a week for up to three weeks, and the negative control group was treated with PBS. Tumor volume was calculated as: Tumor volume (LWW)=(Length×Width×Width)/2.\nas §1"}},
  "note": "Where no end group is shown, it is not given here. [ ]: non-standard residue; d: D form.",
  "data": [
    {"molecule": "H2N-YIQTGNGIGLYYPPPYMLEVK-CONH2 (H-[dY][dI][dQ][dT]G[dN]G[dI]G[dL][dY][dY][dP][dP][dP][dY][dM][dL][dE][dV][dK]-NH2; also: retro-inverso) [CTLA-4 (9) RIL (150-130)]", "values": [
      {"measurement": "tumor volume, between groups comparison vs PBS (p or words)", "setting": "CT26 tumor cells", "value": "< 0.05"}
    ]},
    {"molecule": "KLLSLIKGVIVHRLEGVE-GPSL-KVELMYPPPYYLGIGNGTQIY-CONH2 (KLLSLIKGVIVHRLEGVEGPSLKVELMYPPPYYLGIGNGTQIY-NH2; not fully specified; printed as KLLSLIKGVIVHRLEGVE-GPSL-KVELMYPPPYYLGIGNGTQIY-CONH2) [MVF-CTLA-4 (130)]", "values": [
      {"measurement": "tumor volume LWW versus PBS group", "setting": "4T1 breast cancer cells; 4T1, day 14", "value": "significant smaller tumor size"},
      {"measurement": "tumor volume LWW versus PBS group", "setting": "4T1 breast cancer cells; 4T1, day 14, listed as CTLA-4 (130)", "value": "significantly smaller tumor size"},
      {"measurement": "tumor volume LWW versus PBS group", "setting": "CT26 colon carcinoma; CT26, day 14", "value": "significant smaller tumor size"},
      {"measurement": "tumor volume LWW versus PBS group", "setting": "CT26 colon carcinoma; CT26, day 14, listed as CTLA-4 (130)", "value": "significantly smaller tumor size"},
      {"measurement": "tumor volume LWW versus PBS group", "setting": "CT26 colon carcinoma; CT26, day 16", "value": "significant smaller tumor size"},
      {"measurement": "tumor volume LWW versus PBS group", "setting": "CT26 colon carcinoma; CT26, day 16, listed as CTLA-4 (130)", "value": "significantly smaller tumor size"},
      {"measurement": "survival versus PBS group (Log-rank test)", "setting": "D2F2 mammary tumor cells", "value": "significant different longer survival"},
      {"measurement": "tumor volume LWW versus PBS group", "setting": "D2F2 mammary tumor cells; D2F2, day 14", "value": "significantly smaller tumor size"},
      {"measurement": "tumor volume LWW versus PBS group", "setting": "D2F2 mammary tumor cells; D2F2, day 16", "value": "significantly smaller tumor size"},
      {"measurement": "tumor volume LWW versus PBS group", "setting": "D2F2 mammary tumor cells; D2F2, day 19", "value": "significantly smaller tumor size"},
      {"measurement": "tumor volume LWW versus PBS group", "setting": "D2F2 mammary tumor cells; D2F2, day 21", "value": "significantly smaller tumor size"}
    ]},
    {"molecule": "KLLSLIKGVIVHRLEGVEGPSLEYASPGKATEVRVTVLRQA-CONH2 (KLLSLIKGVIVHRLEGVEGPSLEYASPGKATEVRVTVLRQA-NH2; not fully specified; printed as KLLSLIKGVIVHRLEGVEGPSLEYASPGKATEVRVTVLRQA-CONH2) [MVF-CTLA-4 (59)]", "values": [
      {"measurement": "survival versus PBS group (Log-rank test)", "setting": "4T1 breast cancer cells", "value": "significant longer survival"},
      {"measurement": "tumor volume LWW versus PBS group", "setting": "4T1 breast cancer cells; 4T1, day 14", "value": "significant smaller tumor size"},
      {"measurement": "tumor volume LWW versus PBS group", "setting": "4T1 breast cancer cells; 4T1, day 14, listed as CTLA-4 (59)", "value": "significantly smaller tumor size"},
      {"measurement": "tumor volume LWW versus PBS group", "setting": "4T1 breast cancer cells; 4T1, day 16", "value": "significant smaller tumor size"},
      {"measurement": "tumor volume LWW versus PBS group", "setting": "4T1 breast cancer cells; 4T1, day 16, listed as CTLA-4 (59)", "value": "significantly smaller tumor size"},
      {"measurement": "tumor volume LWW versus PBS group", "setting": "CT26 colon carcinoma; CT26, day 14", "value": "significant smaller tumor size"},
      {"measurement": "tumor volume LWW versus PBS group", "setting": "CT26 colon carcinoma; CT26, day 14, listed as CTLA-4 (59)", "value": "significantly smaller tumor size"},
      {"measurement": "tumor volume LWW versus PBS group", "setting": "CT26 colon carcinoma; CT26, day 16", "value": "significant smaller tumor size"},
      {"measurement": "tumor volume LWW versus PBS group", "setting": "CT26 colon carcinoma; CT26, day 16, listed as CTLA-4 (59)", "value": "significantly smaller tumor size"},
      {"measurement": "survival versus PBS group (Log-rank test)", "setting": "D2F2 mammary tumor cells", "value": "significant different longer survival"},
      {"measurement": "tumor volume LWW versus PBS group", "setting": "D2F2 mammary tumor cells; D2F2, day 14", "value": "significantly smaller tumor size"},
      {"measurement": "tumor volume LWW versus PBS group", "setting": "D2F2 mammary tumor cells; D2F2, day 16", "value": "significantly smaller tumor size"},
      {"measurement": "tumor volume LWW versus PBS group", "setting": "D2F2 mammary tumor cells; D2F2, day 19", "value": "significantly smaller tumor size"},
      {"measurement": "tumor volume LWW versus PBS group", "setting": "D2F2 mammary tumor cells; D2F2, day 21", "value": "significantly smaller tumor size"}
    ]},
    {"molecule": "KLLSLIKGVIVHRLEGVEGPSLRQADSQVTEVCAATYMMG-CONH2 (KLLSLIKGVIVHRLEGVEGPSLRQADSQVTEVCAATYMMG-NH2; not fully specified; printed as KLLSLIKGVIVHRLEGVEGPSLRQADSQVTEVCAATYMMG-CONH2) [MVF-CTLA-4 (75)]", "values": [
      {"measurement": "survival versus PBS group (Log-rank test)", "setting": "4T1 breast cancer cells", "value": "significant longer survival"},
      {"measurement": "tumor volume LWW versus PBS group", "setting": "4T1 breast cancer cells; 4T1, day 14", "value": "significant smaller tumor size"},
      {"measurement": "tumor volume LWW versus PBS group", "setting": "4T1 breast cancer cells; 4T1, day 14, listed as CTLA-4 (75)", "value": "significantly smaller tumor size"},
      {"measurement": "tumor volume LWW versus PBS group", "setting": "4T1 breast cancer cells; 4T1, day 16", "value": "significant smaller tumor size"},
      {"measurement": "tumor volume LWW versus PBS group", "setting": "4T1 breast cancer cells; 4T1, day 16, listed as CTLA-4 (75)", "value": "significantly smaller tumor size"},
      {"measurement": "tumor volume LWW versus PBS group", "setting": "D2F2 mammary tumor cells; D2F2, day 14", "value": "significantly smaller tumor size"},
      {"measurement": "tumor volume LWW versus PBS group", "setting": "D2F2 mammary tumor cells; D2F2, day 16", "value": "significantly smaller tumor size"},
      {"measurement": "tumor volume LWW versus PBS group", "setting": "D2F2 mammary tumor cells; D2F2, day 19", "value": "significantly smaller tumor size"},
      {"measurement": "tumor volume LWW versus PBS group", "setting": "D2F2 mammary tumor cells; D2F2, day 21", "value": "significantly smaller tumor size"}
    ]},
    {"molecule": "B1", "values": [
      {"measurement": "tumor volume LWW versus PBS group", "setting": "4T1 breast cancer cells; 4T1, day 16", "value": "significant smaller tumor size"},
      {"measurement": "tumor volume LWW versus PBS group", "setting": "4T1 breast cancer cells; 4T1, day 16, listed as CTLA-4 (92)", "value": "significantly smaller tumor size"},
      {"measurement": "tumor volume LWW versus PBS group", "setting": "CT26 colon carcinoma; CT26, day 14", "value": "significant smaller tumor size"},
      {"measurement": "tumor volume LWW versus PBS group", "setting": "CT26 colon carcinoma; CT26, day 14, listed as CTLA-4 (92)", "value": "significantly smaller tumor size"},
      {"measurement": "tumor volume LWW versus PBS group", "setting": "CT26 colon carcinoma; CT26, day 16", "value": "significant smaller tumor size"},
      {"measurement": "tumor volume LWW versus PBS group", "setting": "CT26 colon carcinoma; CT26, day 16, listed as CTLA-4 (92)", "value": "significantly smaller tumor size"},
      {"measurement": "tumor volume LWW versus PBS group", "setting": "D2F2 mammary tumor cells; D2F2, day 14", "value": "without difference"},
      {"measurement": "tumor volume LWW versus PBS group", "setting": "D2F2 mammary tumor cells; D2F2, day 16", "value": "significantly smaller tumor size"},
      {"measurement": "tumor volume LWW versus PBS group", "setting": "D2F2 mammary tumor cells; D2F2, day 19", "value": "significantly smaller tumor size"},
      {"measurement": "tumor volume LWW versus PBS group", "setting": "D2F2 mammary tumor cells; D2F2, day 21", "value": "significantly smaller tumor size"}
    ]}
  ]
}
